Values of other authors in US20030073115A1 (priority 2002, published 2003).

Assays:
CNS galanin receptors = details: CNS / brain
[1] = test system: gastrointestinal smooth muscle
[2] = test system: Galanin receptors in the dorsal hippocampus

affinity [2]	Compound	activity at CNS galanin receptors (CNS galanin receptors)	activity in gastrointestinal smooth muscle [1]
	CSCC[C@H](NC(=O)[C@H](CC(C)C)NC(=O)CNC(=O)[C@H](Cc1ccccc1)NC(=O)[C@H](Cc1ccccc1)NC(=O)[C@H](CCC(N)=O)NC(=O)[C@H](CCC(N)=O)NC(=O)[C@@H]1CCCN1C(=O)CNC(=O)[C@H](CC(C)C)NC(=O)[C@H](CC(C)C)NC(=O)[C@H](Cc1ccc(O)cc1)NC(=O)CNC(=O)[C@H](C)NC(=O)[C@H](CO)NC(=O)[C@H](CC(N)=O)NC(=O)[C@H](CC(C)C)NC(=O)[C@@H](NC(=O)[C@H](Cc1c[nH]c2ccccc12)NC(=O)CN)[C@@H](C)O)C(N)=O [M15]	antagonist	full agonist
high affinity	Gal (1-15): galanin fragment 1-15		
